Data: patent US20120258944A1, “ANTIOXIDANTS FOR USE IN THERAPY” (priority 2009, published 2012)

Experiments:
[1] = tested on: human neutrophils and PBMCs, rat neutrophils and PBMCs, human PLB-985 cell line; assay: Extracellular ROS, isoluminol luminescence, PMA or fMLF stimulated cells; type: cell-based; settings: PMA or fMLF 30 ng/ml; compounds 120 to 0 microM; FIG. 1-4, 9-12, 14-17
Protocol: (§1) Validation was performed by stimulating cells with PMA and fMLF. When treated with the antioxidants, altered level of ROS production from the cells was measured using luminometry. Both intracellular and extracellular effect on ROS on the cells was analyzed using isoluminol (extracellular) and luminol (intracellular when co-administered with SOD and catalase) (Dahlgren et al. “Respiratory burst in human neutrophils”, Journal of Immunological Methods 232 1999; 3-14).
The isoluminol reagent buffer was made of HBSS buffer (with Ca^2+), Isoluminol and HRP.
(§2) 1) Add 25 microL of antioxidants to assay plate to get proper concentrations in a total reaction volume of 100 micro-L. 2) Add 25 microL of PMA (120 ng/ml) and fMLF (120 ng/ml) to assay plate to get concentration of 30 ng/ml in a total reaction volume of 100 microL. 3) Add 50 microL of cell suspension (2 million cells/ml) to each well. Immediately after addition of cell suspension initiate luminescence measurement; the reaction starts at once when the cells are added to the assay plate. Measurement points are taken at 1-minute intervals for 25 minutes. Data is presented as AUC (Area Under Curve) by a summary of all collected measurements for each well.
FIG. 1: Extracellular ROS analyzed by Isoluminol induced luminescence in human Neutrophils. ROS induced with PMA (30 ng/ml) with 200, 100 or 0 microM NAC. Concentrations of compounds 120, 60, 30 and 0 microM final concentrations.
FIG. 9: Extracellular ROS analyzed by Isoluminol induced luminescence in rat Neutrophils. ROS induced with PMA (30 ng/ml) with 200, 100 or 0 microM NAC. Concentrations of compounds 120, 60, 30 and 0 microM final concentrations.
FIG. 11: Extracellular ROS analyzed by Isoluminol induced luminescence in human PLB-985 cell line. ROS induced with PMA (30 ng/ml) with 200, 100 or 0 microM NAC. Concentrations of compounds 120, 60, 30 and 0 microM final concentrations.

PLB985 cells = assay: Resazurin based in vitro toxicology assay (TOX8); type: cell-based, human; settings: PLB985, 3 hours, 120 μM
Protocol: The viability of cells treated with the compounds was also analyzed using a Resazurin based in vitro Toxicology Assay Kit (SigmaAldrich TOX8). Resazurin systems measure the metabolic activity of living cell. Resazurin in its oxidized form (blue) is reduced (red) by living cells and the amount of dye conversion is measured fluorometrically or spectrophotometrically indicating the degree of cytotoxicity.
1) 75 micro-l of PLB985 cells (1 million cells/ml) is mixed with 25 micro-l of Compounds 1, 2, 3 and D (480, 120, 15 and 0.48 micro-M) in a 96 well plate in duplicates. 2) 10 micro-L of Resazurin solution is added to each well and the plate is incubated at 37° C. for 3 hours. 3) Spectrophotometrical analysis is performed in plate reader at 600 and 690 nm.
FIG. 18: Cell viability of compounds in human PLB-985 cell line. Concentrations of compounds 120; 60; 30; 3.75; 0.12 and […] final concentrations. Measurement that indicates cell cytotoxicity (In vitro toxicology assay, TOX-8). The bars show increased level of cytotoxicity (analysis of absorbance of 600 nm substracted with absorbance 690 nm).

[2] = tested on: human Neutrophils and human PBMCs; assay: Intracellular ROS, luminol luminescence with SOD and catalase, PMA or fMLF stimulated cells; type: cell-based; settings: PMA or fMLF 30 ng/ml; compounds 120, 60, 30 microM; FIG. 5-8
Protocol: as §1
The luminol reagent buffer is made of HBSS buffer (with Ca^2+), luminol and SOD/Catalase.
as §2
FIG. 5: Intracellular ROS analyzed by Luminol (intracellular ROS) induced luminescence in human Neutrophils. ROS induced with PMA (30 ng/ml) with 200, 100 or 0 microM NAC. Concentrations of compounds 120, 60, 30 and 0 microM final concentrations.
FIG. 6: Intracellular ROS analyzed by Luminol (intracellular ROS) induced luminescence in human Neutrophils. ROS induced with fMLF (30 ng/ml) with 200, 100 or 0 microM NAC. Concentrations of compounds 120, 60, 30 and 0 microM final concentrations.
FIG. 7: Intracellular ROS analyzed by Luminol (intracellular ROS) induced luminescence in human PBMCs. ROS induced with PMA (30 ng/ml) with 200, 100 or 0 microM NAC. Concentrations of compounds 120, 60, 30 and 0 microM final concentrations.
FIG. 8: Intracellular ROS analyzed by Luminol (intracellular ROS) induced luminescence in human PBMCs. […]

[3] = tested on: human umbilical vein endothelial cells (HUVEC); assay: Visual evaluation of HUVECs under the microscope (dislodging from the surface); settings: HUVEC
Protocol: Cells were harvested and resuspended in supplemented medium 200 without phenol red. 50 000 cells were added in duplicates to 96-well plates. The compounds were tested on HUVECs according to the following concentrations.
The compounds were diluted in Medium 200 from the 0.1M stock solution. The toxic effects of the compounds were tested after 24 hrs, 48 hrs and 72 hrs.
By visually looking at the cells under the microscope and estimating the dislodging from the surface, the state of the cells was evaluated.

[4] = cited from earlier work; for Inhibited Rate of Linoleic Acid Peroxidation (Rinh): two-phase model, N-acetylcysteine in the aqueous phase
[5] = tested on: human umbilical vein endothelial cells (HUVEC); assay: XTT in vitro toxicology test in human umbilical vein endothelial cells; type: cell-based; settings: for toxic concentration: HUVEC; for relative toxicity among the compounds: human endothelial cells, up to 72 hours
Protocol: As a negative control, cells incubated with medium containing 0.5% DMSO (corresponding to the highest DMSO concentration above) was used. As a positive control, cells were incubated in the presence of 20% EtOH.
After the incubation with the compounds, the wells were washed with PBS to remove substances which could interfere with the assay. 40 μl of fresh medium 200 without phenol red was added together with 10 μl XTT substance (according to the manufacturer's instructions). The plates were incubated for 8 hrs and the colour development was monitored by measuring the absorbance at 450 nm.
After incubation, the number of viable cells was assessed by observing the amount of metabolized XTT (2,3-bis[2-methoxy-4-nitro-5-sulphophenyl]-2H-tetrazolium-5-carboxyanilide inner salt).

kidney slice = assay: Organ model TBARS experiment (TBA-MDA assay) in kidney slices
[6] = ABTS radical cation assay (TEAC) in aqueous PBS buffer; settings: 6.08 micro-M, PBS buffer pH 7.4, after 5 min
Protocol: In order to investigate its aqueous phase performance, we thought that it would be interesting to determine its Trolox Equivalent Antioxidant Capacity (TEAC) (Free Rad. Biol. Med. 1999, 26, 1231-1237) which has been used to quantify the antioxidant activity of biological fluids, extracts and pure compounds. The TEAC value is defined as the concentration of Trolox which has an equivalent antioxidant potential as a 1 mM solution of the compound under investigation (Free Rad. Biol. Med. 1996, 20, 933-956).
A 2,2′-azinobis(3-ethylbenzothiazoline-6 sulphonic acid radical cation (ABTS•+) assay was used to determine relative TEAC values. To a preformed solution of ABTS•+ in PBS buffer, pH 7.4, with an absorbance slightly above 0.7 were added various amounts (3-30 microM) of organoselenium compound 1, Trolox, sodium ascorbate and N-acetylcysteine. The absorbance at 734 inn was recorded immediately after mixing and then every minute for the next 8 minutes.
Antioxidant activity as determined by the capacity of the antioxidant to decolorize the ABTS^+ radical cation was determined essentially as described in the literature (Acc. Chem. Res. 1986, 19, 194-201). […] In a typical experiment, the antioxidant (1.52 micro-L of a 3.00 mM solution in MeOH or water; final concentration=6.08 micro-M) was syringed into 0.750 mL of the ABTS^+ radical cation solution. After initial mixing, the absorbance was recorded every minute for the next eight minutes.

[7] = tested on: MG-63, HEK-293, SHSY-5y, MRC-5 and CaCo-2-cells; assay: Alamar Blue cell viability/proliferation assay; type: cell-based, human; settings: 60 micro-M, day 1 to day 7
Text: Alamar Blue is a non-toxic metabolic indicator for viable cells. Following uptake, the dye becomes reduced and causes a change in the colour of the cell. The colour change correlates reasonably well with the number of living cells in the sample.
Cells w/o antioxidant were used as controls.
Alamar Blue is a non-toxic metabolic indicator for viable cells. Upon uptake into the cell the dye becomes reduced and changes colour. The colour change correlates approximately with the number of living cells in the sample.

liver microsomes = settings: cited from earlier work
[8] = coupled reductase method; cited from earlier work

Structure (SMILES): CC[Te]c1nc(C)cc(C)c1O [Comparative Compound 2]
- antioxidative effect on extracellular ROS [1]: less potent
- cell viability at highest concentration (PLB985 cells): decrease in cell viability
- antioxidative effect on intracellular ROS [2]: lesser effect
- concentration at which cells were affected (visual) ([3]; 24 hrs): 500 µM
- concentration at which cells were affected (visual) ([3]; 48 hrs): 200 µM
- Inhibited Rate of Linoleic Acid Peroxidation (Rinh) [4]: 22 µM/h
- toxic concentration ([5]; 24 hrs incubation): 500 µM
- toxic concentration ([5]; 48 hrs incubation): 200 µM
- toxic concentration ([5]; 72 hrs incubation): 200 µM
- relative toxicity among the compounds [5]: slightly more toxic than Compounds 1

Structure (SMILES): CCCCCCCC[Te]c1nc(C)cc(C)c1O [Comparative Compound 3]
- antioxidative effect on extracellular ROS [1]: less potent
- cell viability at highest concentration (PLB985 cells): decrease in cell viability
- antioxidative effect on intracellular ROS [2]: lesser effect
- concentration at which cells were affected (visual) ([3]; 24 hrs): 100 µM
- Inhibited Rate of Linoleic Acid Peroxidation (Rinh) [4]: 8 µM/h
- toxic concentration ([5]; 24 hrs incubation): 100 µM
- toxic concentration ([5]; 48 hrs incubation): 100 µM
- toxic concentration ([5]; 72 hrs incubation): 100 µM
- relative toxicity among the compounds [5]: most toxic compound

Structure (SMILES): Cc1cc2c(c(C)c1O)CC(C)[Se]2 (stereo not shown) [Compound 6]
- potency as inhibitor of TBARS production compared with references (kidney slice): more potent inhibitors of TBARS production than Trolox and N-acetylcysteine
- concentration able to inhibit 50% of the TBARS formation in the control incubation (kidney slice; re-oxygenation after Argon): sub-micromolar

Structure (SMILES): CC(=O)N[C@@H](CS)C(=O)O [N-acetylcysteine]
- TEAC value [6]: 2.4

Structure (SMILES): Cc1c(C)c2c(c(C)c1O)CCC(C)(C(=O)O)O2 (stereo not shown) [Trolox]
- cell growth (Alamar Blue) [7]: normal cell growth patterns

Structure (SMILES): Oc1ccc2c(c1)CCO2 [X═O]
- inhibition of lipid peroxidation in liver microsomes (liver microsomes): not effective

Structure (SMILES): Oc1ccc2c(c1)CCS2 [X═S]
- inhibition of lipid peroxidation in liver microsomes (liver microsomes): not effective

Structure (SMILES): Oc1ccc2c(c1)CC[Se]2 [X═Se]
- catalyst activity in the reaction between glutathione and hydroperoxide (thiol peroxidase activity) [8]: insignificant
- inhibition of lipid peroxidation in liver microsomes (liver microsomes): not effective
- inhibition of azo-initiated peroxidation of linoleic acid ([4]; two-phase system, absence of thiol reducing agent): poor inhibitor

Structure (SMILES): Oc1ccc2c(c1)CC[Te]2 [X═Te]
- catalyst activity in the reaction between glutathione and hydroperoxide (thiol peroxidase activity) [8]: highly active catalyst
- inhibition of lipid peroxidation in liver microsomes (liver microsomes): potent inhibitor
- antioxidant capacity ([4]; two-phase system, presence of a reducing agent): best antioxidant capacity
